According to patent US8518953B2, “Aminopyrimidines useful as inhibitors of protein kinases” (Vertex Pharmaceuticals Incorporated, priority 2007, dated 2013):

Key:
β-catenin = β-catenin induction in brains of MCAO rats (Western blot); type: in vivo, rat; conditions: all doses, at the termination of the study
Description: Hypotonic Lysis Buffer consists of 10 mM HEPES, 10 mM KCL, 1.5 mM MgCl2, 1.0 mM EDTA, 1.0 mM DTT, 1× Roche protease inhibitor cocktail, and 1.0 mM AEBSF Calbiochem protease inhibitor cocktail (cat#539134). All concentrations are final and are diluted in water. First, hypotonic lysis buffer is added to the tissue at 5×'s weight. The tissue is then broken up on ice using the end of a syringe plunger. Next, the samples are freeze-thawed five times. The lysates are then transferred to ultracentrifuge tubes and spun at 100,000 g for 35 min at 4° C. The supernatants are then collected and an aliquot is taken to measure protein with the Pierce BCA protein assay kit (cat#23225), using BSA standard curve. The remaining protein lysates are diluted 1:1 with laemmli sample buffer containing β-mercaptoethanol. The protein concentration is then normalized. The samples are boiled for 5 min at 95° C. followed by a spin at 14,000 rpm in a mini-centrifuge for 1 min. The samples are then snap frozen with dry ice and stored at −20° C. The samples are first loaded on 10% Tris-glycine gel (10 uL/well). […] Induction of β-catenin is determined by comparison of the density of protein band in samples obtained from compound treated animals with that of vehicle treated animals. […] Lysates were analyzed by Western blot (see Example 3) and probed for GSK-3α/β pTYR levels. […]

GSK-3β (AA 1-420) = biological target: T1, GSK-3β (AA 1-420) (Homo sapiens, UniProt P49841); test: GSK-3 Inhibition Assay (standard coupled enzyme system); type: biochemical; conditions: 20 μM ATP, 300 μM peptide, 20 nM GSK-3β, 30° C.
T1 construct: GSK-3β (AA 1-420)
T1 sequence (P49841 whole entry, species assumed, the tested form may be a part): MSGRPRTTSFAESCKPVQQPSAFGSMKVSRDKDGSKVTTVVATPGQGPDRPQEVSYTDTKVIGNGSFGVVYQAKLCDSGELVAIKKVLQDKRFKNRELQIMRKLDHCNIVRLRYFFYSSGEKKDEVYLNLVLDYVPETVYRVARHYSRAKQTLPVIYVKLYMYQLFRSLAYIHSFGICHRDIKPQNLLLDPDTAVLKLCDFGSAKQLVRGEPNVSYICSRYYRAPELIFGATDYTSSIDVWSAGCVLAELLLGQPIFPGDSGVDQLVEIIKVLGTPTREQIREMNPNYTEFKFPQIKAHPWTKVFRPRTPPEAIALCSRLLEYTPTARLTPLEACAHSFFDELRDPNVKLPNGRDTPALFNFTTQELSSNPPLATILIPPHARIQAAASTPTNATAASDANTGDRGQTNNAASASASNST
Description: Compounds of the present invention were screened for their ability to inhibit GSK-3β (AA 1-420) activity using a standard coupled enzyme system (Fox et al., Protein Sci. 1998, 7, 2249). Reactions were carried out in a solution containing 100 mM HEPES (pH 7.5), 10 mM MgCl2, 25 mM NaCl, 300 μM NADH, 1 mM DTT and 1.5% DMSO. Final substrate concentrations in the assay were 20 μM ATP (Sigma Chemicals, St Louis, Mo.) and 300 μM peptide (American Peptide, Sunnyvale, Calif.). Reactions were carried out at 30° C. and 20 nM GSK-3β. Final concentrations of the components of the coupled enzyme system were 2.5 mM phosphoenolpyruvate, 300 μM NADH, 30 μg/ml pyruvate kinase and 10 μg/ml lactate dehydrogenase.
An assay stock buffer solution was prepared containing all of the reagents listed above with the exception of ATP and the test compound of the present invention. The assay stock buffer solution (175 μl) was incubated in a 96 well plate with 5 μl of the test compound of the present invention at final concentrations spanning 0.002 μM to 30 μM at 30° C. for 10 min. […] Rates of reaction were obtained using a Molecular Devices Spectramax plate reader (Sunnyvale, Calif.) over 10 min at 30° C. The Ki values were determined from the rate data as a function of inhibitor concentration.

induction of β-catenin in the brain (β-catenin): no induction of β-catenin
Ki (GSK-3β (AA 1-420)): < 5 nM
SMILES: Cc1nc(-c2ccccc2Cl)nc(Nc2n[nH]c3ncc(F)cc23)c1C [Compound I-1, N-(2-(2-chlorophenyl)-5,6-dimethylpyrimidin-4-yl)-5-fluoro-1H-pyrazolo[3,4-b]pyridin-3-amine]
